Results reported in ChEMBL document CHEMBL3797052 (Eur J Med Chem, 2016).

System: A498
Assay: Antiproliferative activity against human A498 cells assessed as growth inhibition after 48 hrs by sulforhodamine B assay
Type: functional
Details: A498, 48 h

| Compound | GI50 | TGI |
| --- | --- | --- |
| CNC(=O)c1cc(Oc2ccc(NC(=O)Nc3ccc(Cl)c(C(F)(F)F)c3)cc2)ccn1 [SORAFENIB] | 2.51 µM | 6.31 µM |

System: CCRF-CEM
Assay: Antiproliferative activity against human CCRF-CEM cells assessed as cell growth at 10^-5 M after 48 hrs by sulforhodamine B assay
Type: functional
Details: read-out: Activity

| Compound | growth at 10 µM |
| --- | --- |
| CNC(=O)c1cc(Oc2ccc3nc(NC(=O)c4ccc5c(c4)OCCO5)sc3c2)ccn1 | 98.4% |

System: not listed separately
Assay: Antiproliferative activity against human MOLT4 cells assessed as cell growth at 10^-5 M after 48 hrs by sulforhodamine B assay
Type: functional
Details: MOLT-4, 48 h, read-out: Activity

| Compound | growth at 10 µM |
| --- | --- |
| CNC(=O)c1cc(Oc2ccc3nc(NC(=O)c4ccc5c(c4)OCCO5)sc3c2)ccn1 | 94.7% |

System: SR
Assay: Antiproliferative activity against human SR cells assessed as cell growth at 10^-5 M after 48 hrs by sulforhodamine B assay
Type: functional
Details: read-out: Activity

| Compound | growth at 10 µM |
| --- | --- |
| CNC(=O)c1cc(Oc2ccc3nc(NC(=O)c4ccc5c(c4)OCCO5)sc3c2)ccn1 | 88.3% |

System: A549
Assay: Antiproliferative activity against human A549/ATCC cells assessed as cell growth at 10^-5 M after 48 hrs by sulforhodamine B assay
Type: functional
Details: A549, 48 h, read-out: Activity

| Compound | growth at 10 µM |
| --- | --- |
| CNC(=O)c1cc(Oc2ccc3nc(NC(=O)c4ccc5c(c4)OCCO5)sc3c2)ccn1 | 98.8% |

System: EKVX
Assay: Antiproliferative activity against human EKVX cells assessed as cell growth at 10^-5 M after 48 hrs by sulforhodamine B assay
Type: functional
Details: read-out: Activity

| Compound | growth at 10 µM |
| --- | --- |
| CNC(=O)c1cc(Oc2ccc3nc(NC(=O)c4ccc5c(c4)OCCO5)sc3c2)ccn1 | 99% |

System: NCI-H226
Assay: Antiproliferative activity against human NCI-H226 cells assessed as cell growth at 10^-5 M after 48 hrs by sulforhodamine B assay
Type: functional
Details: NCI-H226, 48 h, read-out: Activity

| Compound | growth at 10 µM |
| --- | --- |
| CNC(=O)c1cc(Oc2ccc3nc(NC(=O)c4ccc5c(c4)OCCO5)sc3c2)ccn1 | 99.6% |

System: NCI-H23
Assay: Antiproliferative activity against human NCI-H23 cells assessed as cell growth at 10^-5 M after 48 hrs by sulforhodamine B assay
Type: functional
Details: NCI-H23, 48 h, read-out: Activity

| Compound | growth at 10 µM |
| --- | --- |
| CNC(=O)c1cc(Oc2ccc3nc(NC(=O)c4ccc5c(c4)OCCO5)sc3c2)ccn1 | 90% |

System: NCI-H460
Assay: Antiproliferative activity against human NCI-H460 cells assessed as cell growth at 10^-5 M after 48 hrs by sulforhodamine B assay
Type: functional
Details: NCI-H460, 48 h, read-out: Activity

| Compound | growth at 10 µM |
| --- | --- |
| CNC(=O)c1cc(Oc2ccc3nc(NC(=O)c4ccc5c(c4)OCCO5)sc3c2)ccn1 | 104% |

System: not listed separately
Assay: Antiproliferative activity against human SF295 cells assessed as cell growth at 10^-5 M after 48 hrs by sulforhodamine B assay
Type: functional
Details: SF-295, 48 h, read-out: Activity

| Compound | growth at 10 µM |
| --- | --- |
| CNC(=O)c1cc(Oc2ccc3nc(NC(=O)c4ccc5c(c4)OCCO5)sc3c2)ccn1 | 99.7% |

System: not listed separately
Assay: Antiproliferative activity against human SNB75 cells assessed as cell growth at 10^-5 M after 48 hrs by sulforhodamine B assay
Type: functional
Details: SNB-75, 48 h, read-out: Activity

| Compound | growth at 10 µM |
| --- | --- |
| CNC(=O)c1cc(Oc2ccc3nc(NC(=O)c4ccc5c(c4)OCCO5)sc3c2)ccn1 | 95.8% |

System: U-251
Assay: Antiproliferative activity against human U251 cells assessed as cell growth at 10^-5 M after 48 hrs by sulforhodamine B assay
Type: functional
Details: U-251, 48 h, read-out: Activity

| Compound | growth at 10 µM |
| --- | --- |
| CNC(=O)c1cc(Oc2ccc3nc(NC(=O)c4ccc5c(c4)OCCO5)sc3c2)ccn1 | 45.5% |

System: M14
Assay: Antiproliferative activity against human M14 cells assessed as cell growth at 10^-5 M after 48 hrs by sulforhodamine B assay
Type: functional
Details: M14, 48 h, read-out: Activity

| Compound | growth at 10 µM |
| --- | --- |
| CNC(=O)c1cc(Oc2ccc3nc(NC(=O)c4ccc5c(c4)OCCO5)sc3c2)ccn1 | 100% |

System: SK-MEL-5
Assay: Antiproliferative activity against human SK-MEL-5 cells assessed as cell growth at 10^-5 M after 48 hrs by sulforhodamine B assay
Type: functional
Details: SK-MEL-5, 48 h, read-out: Activity

| Compound | growth at 10 µM |
| --- | --- |
| CNC(=O)c1cc(Oc2ccc3nc(NC(=O)c4ccc5c(c4)OCCO5)sc3c2)ccn1 | 95.8% |

System: not listed separately
Assay: Antiproliferative activity against human UACC257 cells assessed as cell growth at 10^-5 M after 48 hrs by sulforhodamine B assay
Type: functional
Details: UACC-257, 48 h, read-out: Activity

| Compound | growth at 10 µM |
| --- | --- |
| CNC(=O)c1cc(Oc2ccc3nc(NC(=O)c4ccc5c(c4)OCCO5)sc3c2)ccn1 | 95% |

System: not listed separately
Assay: Antiproliferative activity against human IGROV1 cells assessed as cell growth at 10^-5 M after 48 hrs by sulforhodamine B assay
Type: functional
Details: IGROV-1, 48 h, read-out: Activity

| Compound | growth at 10 µM |
| --- | --- |
| CNC(=O)c1cc(Oc2ccc3nc(NC(=O)c4ccc5c(c4)OCCO5)sc3c2)ccn1 | 99.5% |

System: not listed separately
Assay: Antiproliferative activity against human OVCAR3 cells assessed as cell growth at 10^-5 M after 48 hrs by sulforhodamine B assay
Type: functional
Details: OVCAR-3, 48 h, read-out: Activity

| Compound | growth at 10 µM |
| --- | --- |
| CNC(=O)c1cc(Oc2ccc3nc(NC(=O)c4ccc5c(c4)OCCO5)sc3c2)ccn1 | 101% |

System: not listed separately
Assay: Antiproliferative activity against human OVCAR5 cells assessed as cell growth at 10^-5 M after 48 hrs by sulforhodamine B assay
Type: functional
Details: OVCAR-5, 48 h, read-out: Activity

| Compound | growth at 10 µM |
| --- | --- |
| CNC(=O)c1cc(Oc2ccc3nc(NC(=O)c4ccc5c(c4)OCCO5)sc3c2)ccn1 | 99.1% |

System: not listed separately
Assay: Antiproliferative activity against human NCI-ADR-RES cells assessed as cell growth at 10^-5 M after 48 hrs by sulforhodamine B assay
Type: functional
Details: read-out: Activity

| Compound | growth at 10 µM |
| --- | --- |
| CNC(=O)c1cc(Oc2ccc3nc(NC(=O)c4ccc5c(c4)OCCO5)sc3c2)ccn1 | 95.8% |

System: not listed separately
Assay: Antiproliferative activity against human SKOV3 cells assessed as cell growth at 10^-5 M after 48 hrs by sulforhodamine B assay
Type: functional
Details: SK-OV-3, 48 h, read-out: Activity

| Compound | growth at 10 µM |
| --- | --- |
| CNC(=O)c1cc(Oc2ccc3nc(NC(=O)c4ccc5c(c4)OCCO5)sc3c2)ccn1 | 101% |

System: 786-0
Assay: Antiproliferative activity against human 786-0 cells assessed as cell growth at 10^-5 M after 48 hrs by sulforhodamine B assay
Type: functional
Details: 786-0, 48 h, read-out: Activity

| Compound | growth at 10 µM |
| --- | --- |
| CNC(=O)c1cc(Oc2ccc3nc(NC(=O)c4ccc5c(c4)OCCO5)sc3c2)ccn1 | 97.3% |

System: ACHN
Assay: Antiproliferative activity against human ACHN cells assessed as cell growth at 10^-5 M after 48 hrs by sulforhodamine B assay
Type: functional
Details: read-out: Activity

| Compound | growth at 10 µM |
| --- | --- |
| CNC(=O)c1cc(Oc2ccc3nc(NC(=O)c4ccc5c(c4)OCCO5)sc3c2)ccn1 | 106% |

System: not listed separately
Assay: Antiproliferative activity against human RXF393 cells assessed as cell growth at 10^-5 M after 48 hrs by sulforhodamine B assay
Type: functional
Details: RXF 393, 48 h, read-out: Activity

| Compound | growth at 10 µM |
| --- | --- |
| CNC(=O)c1cc(Oc2ccc3nc(NC(=O)c4ccc5c(c4)OCCO5)sc3c2)ccn1 | 102% |

System: SN12C
Assay: Antiproliferative activity against human SN12C cells assessed as cell growth at 10^-5 M after 48 hrs by sulforhodamine B assay
Type: functional
Details: read-out: Activity

| Compound | growth at 10 µM |
| --- | --- |
| CNC(=O)c1cc(Oc2ccc3nc(NC(=O)c4ccc5c(c4)OCCO5)sc3c2)ccn1 | 107% |

System: not listed separately
Assay: Antiproliferative activity against human TK10 cells assessed as cell growth at 10^-5 M after 48 hrs by sulforhodamine B assay
Type: functional
Details: TK-10, 48 h, read-out: Activity

| Compound | growth at 10 µM |
| --- | --- |
| CNC(=O)c1cc(Oc2ccc3nc(NC(=O)c4ccc5c(c4)OCCO5)sc3c2)ccn1 | 105% |

System: not listed separately
Assay: Antiproliferative activity against human PC3 cells assessed as cell growth at 10^-5 M after 48 hrs by sulforhodamine B assay
Type: functional
Details: PC-3, 48 h, read-out: Activity

| Compound | growth at 10 µM |
| --- | --- |
| CNC(=O)c1cc(Oc2ccc3nc(NC(=O)c4ccc5c(c4)OCCO5)sc3c2)ccn1 | 95.8% |

System: MCF7
Assay: Antiproliferative activity against human MCF7 cells assessed as cell growth at 10^-5 M after 48 hrs by sulforhodamine B assay
Type: functional
Details: MCF7, 48 h, read-out: Activity

| Compound | growth at 10 µM |
| --- | --- |
| CNC(=O)c1cc(Oc2ccc3nc(NC(=O)c4ccc5c(c4)OCCO5)sc3c2)ccn1 | 90.3% |

System: MDA-MB-231
Assay: Antiproliferative activity against human MDA-MB-231 cells assessed as cell growth at 10^-5 M after 48 hrs by sulforhodamine B assay
Type: functional
Details: MDA-MB-231, 48 h, read-out: Activity

| Compound | growth at 10 µM |
| --- | --- |
| CNC(=O)c1cc(Oc2ccc3nc(NC(=O)c4ccc5c(c4)OCCO5)sc3c2)ccn1 | 101% |

System: CCRF-CEM
Assay: Antiproliferative activity against human CCRF-CEM cells assessed as growth inhibition after 48 hrs by sulforhodamine B assay
Type: functional
Details: not given

| Compound | GI50 | TGI |
| --- | --- | --- |
| CNC(=O)c1cc(Oc2ccc(NC(=O)Nc3ccc(Cl)c(C(F)(F)F)c3)cc2)ccn1 [SORAFENIB] | 2 µM | 100 µM |

Same assay, conditions: read-out: LC50 (the source's name)

| Compound | CC50 |
| --- | --- |
| CNC(=O)c1cc(Oc2ccc(NC(=O)Nc3ccc(Cl)c(C(F)(F)F)c3)cc2)ccn1 [SORAFENIB] | 100 µM |
